# Results taken from patent US7514245B2, “Method for producing chiral α-hydroxycarboxylic acids by enzymatic hydrolysis of chiral cyanohydrins” (DSM Fine Chemicals Austria NFG GmbH & Co. KG, priority 2003, dated 2009).
# Target: T1, Rhodococcus erythropolis NCIMB 11540 amidase (Rhodococcus erythropolis, UniProt P22984)
# T1 construct: made in house; host or cells: E. coli B BL21 (plasmid pMS470-33/3/1/11), crude lysate
# T1 sequence (P22984 1-521): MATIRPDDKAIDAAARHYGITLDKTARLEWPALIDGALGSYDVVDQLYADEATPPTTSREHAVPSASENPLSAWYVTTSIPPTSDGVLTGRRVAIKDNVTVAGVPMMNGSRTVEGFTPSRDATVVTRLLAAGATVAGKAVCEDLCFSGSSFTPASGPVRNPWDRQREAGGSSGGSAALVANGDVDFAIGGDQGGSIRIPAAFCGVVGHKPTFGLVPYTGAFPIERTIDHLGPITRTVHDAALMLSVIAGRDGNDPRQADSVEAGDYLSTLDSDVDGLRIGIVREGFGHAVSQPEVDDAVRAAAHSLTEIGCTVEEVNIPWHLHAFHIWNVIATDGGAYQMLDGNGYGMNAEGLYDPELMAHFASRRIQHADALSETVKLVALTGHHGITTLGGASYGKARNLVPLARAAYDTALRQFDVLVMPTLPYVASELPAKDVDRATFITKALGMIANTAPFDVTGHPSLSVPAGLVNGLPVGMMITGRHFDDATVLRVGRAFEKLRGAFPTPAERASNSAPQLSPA
# Assay: Determination of amidase activity of crude lysates with acetamide
# Format: biochemical
# Conditions: pMS470-33/3/1/11 lysate; acetamide (40 mM) in PBS buffer at 37° C.; indophenolblue method
# Description: The E. coli B BL21 cells transformed by pMS470-33/3/1/11 were isolated on LB-ampicillin plates and an ONC of 100 ml of LB-ampicillin medium was inoculated with an individual colony. On the next morning a main culture consisting of 250 ml of SOC-ampicillin medium was inoculated into a 1000 ml chicane flask to an OD600 of 0.01 to 0.03 (Beckmann Photometer). […] After reaching the induction density (OD600=1 Beckmann Photometer), the cultures were induced by adding IPTG to a concentration of 0.3 mM. After an induction time of 16 h, the cells were harvested (centrifugation 3000·g, 10 min) and washed with sodium phosphate buffer (0.1 M, pH=7). The pellet produced was resuspended to approximately 5 ml total volume in wash buffer and disintegrated using an ultrasound probe (BRANSON Sonifier 250, 60% power setting, constant sonication; 5 times 30 s each with 1 min pause for cooling) with constant cooling to completeness (visual control of completeness under the microscope). […]
# […] The resultant blue coloration, after dilution of all samples and standards 1:10) with water, was quantified in the spectrophotometer (Perkin Elmer UV/VIS Spectrometer Lambda Bio) at 640 nm. By correlating the increase in blue coloration over time with the extinction values of the standards, the activity (μmol of released ammonium per minute) could be back-calculated.
smiles,measurement,value
CC(N)=O [acetamide],activity of crude lysates,approximately 75 U/ml
